#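 Following 48 hours of exposure in 96-well plates, responses at five concentrations were used to interpolate endpoints linearly. The concentration for 50% growth inhibition is given as GI50. Definition used: TGI = concentration required for complete inhibition of growth.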
# Key:
# Assay in all cases: NCI anticancer screen, dose series, 48 h
# [1] = tested on: BT-549 breast
# [2] = tested on: SK-MEL-5 melanoma
# [3] = tested on: SK-MEL-2 melanoma
# [4] = tested on: A549 NSCLC
# [5] = tested on: SF-295 CNS
# [6] = tested on: HOP-92 NSCLC
# [7] = tested on: M14 melanoma
# [8] = tested on: K-562 leukemia
# [9] = tested on: HCT-15 colon
# [10] = tested on: HOP-62 NSCLC
# [11] = tested on: OVCAR-3 ovarian
# [12] = tested on: HL-60(TB) leukemia
# [13] = tested on: TK-10 renal
# [14] = tested on: SF-539 CNS
# [15] = tested on: IGROV1 ovarian
# [16] = tested on: SF-268 CNS
# [17] = tested on: NCI/ADR-RES ovarian
# [18] = tested on: HCC-2998 colon
# [19] = tested on: HT29 colon
# [20] = tested on: MDA-MB-231 breast
# [21] = tested on: EKVX NSCLC
# [22] = tested on: U251 CNS
# [23] = tested on: CCRF-CEM leukemia
# [24] = tested on: UACC-62 melanoma
# [25] = tested on: CAKI-1 renal
# [26] = tested on: SW-620 colon
# [27] = tested on: UO-31 renal
# [28] = tested on: DU-145 prostate
# [29] = tested on: SK-MEL-28 melanoma
# [30] = tested on: ACHN renal
# [31] = tested on: A498 renal
# [32] = tested on: HS 578T breast
# [33] = tested on: OVCAR-5 ovarian
# [34] = tested on: SNB-19 CNS
# [35] = tested on: LOX IMVI melanoma
# [36] = tested on: NCI-H522 lung
# [37] = tested on: PC-3 prostate
# [38] = tested on: OVCAR-4 ovarian
# [39] = tested on: RXF 393 renal
# [40] = tested on: COLO 205 colon
# [41] = tested on: UACC-257 melanoma
# [42] = tested on: KM12 colon
# [43] = tested on: MOLT-4 leukemia
# [44] = tested on: SN12C renal
# [45] = tested on: SK-OV-3 ovarian
# [46] = tested on: SR leukemia
# [47] = tested on: RPMI-8226 leukemia
# [48] = tested on: NCI-H460 lung
# [49] = tested on: NCI-H226 lung
# [50] = tested on: NCI-H23 lung
# [51] = tested on: HCT-116 colon
# [52] = tested on: MCF7 breast
# [53] = tested on: 786-0 renal
# [54] = tested on: SNB-75 CNS
# [55] = tested on: OVCAR-8 ovarian
# [56] = tested on: MDA-MB-435
smiles,measurement,setting,value
NC(=O)OCCn1cc(-c2nc(-c3c[nH]c4ncccc34)cs2)c2ccccc21,GI50,[1],1.5 µM
same,TGI,[1],6.04 µM
same,GI50,[2],1.41 µM
same,TGI,[2],2.85 µM
same,GI50,[3],1.52 µM
same,TGI,[3],3.96 µM
same,GI50,[4],2.34 µM
same,TGI,[4],23 µM
same,GI50,[5],2.29 µM
same,TGI,[5],7.7 µM
same,GI50,[6],0.668 µM
same,TGI,[6],3.71 µM
same,GI50,[7],1.33 µM
same,TGI,[7],4.53 µM
same,GI50,[8],1.55 µM
same,TGI,[8],14 µM
same,GI50,[9],1.92 µM
same,TGI,[9],> 100 µM
same,GI50,[10],1.07 µM
same,TGI,[10],7.87 µM
same,GI50,[11],1.27 µM
same,TGI,[11],3.83 µM
same,GI50,[12],2.12 µM
same,TGI,[12],5.45 µM
same,GI50,[13],2.24 µM
same,TGI,[13],7.66 µM
same,GI50,[14],1.61 µM
same,TGI,[14],4.5 µM
same,GI50,[15],0.138 µM
same,TGI,[15],1.95 µM
same,GI50,[16],1.48 µM
same,TGI,[16],6.77 µM
same,GI50,[17],2.82 µM
same,TGI,[17],> 100 µM
same,GI50,[18],1.99 µM
same,TGI,[18],6.54 µM
same,GI50,[19],1.77 µM
same,TGI,[19],8.55 µM
same,GI50,[20],1.1 µM
same,TGI,[20],4.38 µM
same,GI50,[21],1.3 µM
same,TGI,[21],7.68 µM
same,GI50,[22],1.91 µM
same,TGI,[22],5.08 µM
same,GI50,[23],2.65 µM
same,TGI,[23],16.9 µM
same,GI50,[24],1.57 µM
same,TGI,[24],5.41 µM
same,GI50,[25],2.42 µM
same,TGI,[25],8.54 µM
same,GI50,[26],1.3 µM
same,TGI,[26],4.53 µM
same,GI50,[27],0.621 µM
same,TGI,[27],4.65 µM
same,GI50,[28],3.07 µM
same,TGI,[28],26.1 µM
same,GI50,[29],2.05 µM
same,TGI,[29],14.8 µM
same,GI50,[30],2.05 µM
same,TGI,[30],8.24 µM
same,GI50,[31],0.905 µM
same,TGI,[31],2.87 µM
same,GI50,[32],1.07 µM
same,TGI,[32],4.25 µM
same,GI50,[33],2.21 µM
same,TGI,[33],43.8 µM
same,GI50,[34],2.57 µM
same,TGI,[34],43.8 µM
same,GI50,[35],1.55 µM
same,TGI,[35],4.11 µM
same,GI50,[36],1.49 µM
same,TGI,[36],4.42 µM
same,GI50,[37],1.87 µM
same,TGI,[37],14.6 µM
same,GI50,[38],1.78 µM
same,TGI,[38],11.9 µM
same,GI50,[39],1.78 µM
same,TGI,[39],5.56 µM
same,GI50,[40],2.06 µM
same,TGI,[40],9.57 µM
same,GI50,[41],2.08 µM
same,TGI,[41],7.88 µM
same,GI50,[42],1.44 µM
same,TGI,[42],9.45 µM
same,GI50,[43],2.19 µM
same,TGI,[43],8.61 µM
same,GI50,[44],2.46 µM
same,TGI,[44],32.4 µM
same,GI50,[45],1.54 µM
same,TGI,[45],6.44 µM
same,GI50,[46],1.08 µM
same,TGI,[46],7.05 µM
same,GI50,[47],2.04 µM
same,TGI,[47],8.03 µM
same,GI50,[48],2.46 µM
same,TGI,[48],12.5 µM
same,GI50,[49],1.68 µM
same,TGI,[49],12.5 µM
same,GI50,[50],2.02 µM
same,TGI,[50],> 100 µM
same,GI50,[51],1.72 µM
same,TGI,[51],5.02 µM
same,GI50,[52],0.989 µM
same,TGI,[52],5.31 µM
same,GI50,[53],2.38 µM
same,TGI,[53],7.23 µM
COc1cc2c(c(OC)c1OC)-c1ncc3cc4c(cc3c1C2)OCO4,GI50,[1],3.76 µM
same,TGI,[1],20.1 µM
same,GI50,[54],79.4 µM
same,TGI,[54],> 100 µM
same,GI50,[2],17.4 µM
same,TGI,[2],36.5 µM
same,GI50,[3],38.9 µM
same,TGI,[3],> 100 µM
same,GI50,[4],21.1 µM
same,TGI,[4],97.9 µM
same,GI50,[5],15.6 µM
same,TGI,[5],39.8 µM
same,GI50,[7],45.5 µM
same,TGI,[7],> 100 µM
same,GI50,[8],2.27 µM
same,TGI,[8],> 100 µM
same,GI50,[9],10.8 µM
same,TGI,[9],> 100 µM
same,GI50,[10],21.7 µM
same,TGI,[10],46.6 µM
same,GI50,[11],15.5 µM
same,TGI,[11],38.1 µM
same,GI50,[55],13.9 µM
same,TGI,[55],36.9 µM
same,GI50,[12],26.3 µM
same,TGI,[12],> 100 µM
same,GI50,[13],26.2 µM
same,TGI,[13],67.3 µM
same,GI50,[15],12.8 µM
same,TGI,[15],> 100 µM
same,GI50,[17],32.1 µM
same,TGI,[17],> 100 µM
same,GI50,[18],17.4 µM
same,TGI,[18],48.1 µM
same,GI50,[20],13.8 µM
same,TGI,[20],88.8 µM
same,GI50,[21],15.6 µM
same,TGI,[21],51.7 µM
same,GI50,[22],21.6 µM
same,TGI,[22],54.2 µM
same,GI50,[24],19.3 µM
same,TGI,[24],> 100 µM
same,GI50,[25],18 µM
same,TGI,[25],71.7 µM
same,GI50,[26],18.6 µM
same,TGI,[26],60.5 µM
same,GI50,[27],12.5 µM
same,TGI,[27],74.6 µM
same,GI50,[28],23.2 µM
same,TGI,[28],> 100 µM
same,GI50,[29],54.6 µM
same,TGI,[29],> 100 µM
same,GI50,[30],28.8 µM
same,TGI,[30],73.6 µM
same,GI50,[32],14.7 µM
same,TGI,[32],49.6 µM
same,GI50,[33],> 100 µM
same,TGI,[33],> 100 µM
same,GI50,[34],> 100 µM
same,TGI,[34],> 100 µM
same,GI50,[35],14.3 µM
same,TGI,[35],34.1 µM
same,GI50,[36],18.9 µM
same,TGI,[36],45.9 µM
same,GI50,[37],34.7 µM
same,TGI,[37],> 100 µM
same,GI50,[38],46.3 µM
same,TGI,[38],> 100 µM
same,GI50,[56],13.2 µM
same,TGI,[56],32.6 µM
same,GI50,[39],24.2 µM
same,TGI,[39],83.8 µM
same,GI50,[40],29.7 µM
same,TGI,[40],> 100 µM
same,GI50,[42],18.6 µM
same,TGI,[42],80.1 µM
same,GI50,[44],13.4 µM
same,TGI,[44],40.8 µM
same,GI50,[45],21.9 µM
same,TGI,[45],46.5 µM
same,GI50,[47],17.8 µM
same,TGI,[47],> 100 µM
same,GI50,[48],15.5 µM
same,TGI,[48],38.2 µM
same,GI50,[51],18.8 µM
same,TGI,[51],48.3 µM
same,GI50,[53],30.2 µM
same,TGI,[53],> 100 µM

# Reference: PubChem BioAssay (NCI)
